Literature values in US5621142A, “Aminoalkylcyclopropane derivatives” (Asahi Kasei Kogyo Kabushiki Kaisha, priority 1994, dated 1997).

Assays:
[1] = system: synaptosomal uptake of 5-HT; settings: Neuropharmacology, Vol. 24, No. 12, 1211-1219, 1985
[2] = system: synaptosomal uptake of norepipephrine; settings: Neuropharmacology, Vol. 24, No. 12, 1211-1219, 1985

In the case of `CCN(CC)C(=O)C1(c2ccccc2)CC1CN.Cl` (centres unmarked) [compound (A), 1-phenyl-1-diethylaminocarbonyl-2-aminomethyl-cyclopropane hydrochloride], the “activity to inhibit the synaptosomal uptake of 5-HT” value [1] is given as “has an activity to inhibit the synaptosomal uptake of norepipephrine and 5-HT” and the “activity to inhibit the synaptosomal uptake of norepipephrine” value [2] is given as “has an activity to inhibit the synaptosomal uptake of norepipephrine and 5-HT”.
